Experiments:
DENV-2 NGC-Tongalike = experiment: Tetravalent RT-qPCR assay Protocol B, serotype 2; format: cell-based; details: Dengue virus, DENV2, Vero, 96 h
Procedure: Vero cells (4×10^4) were seeded in 96-well plates. […] Following a 2 hour incubation period, the cell monolayer was washed 3 times with assay medium to remove residual, non-adsorbed virus and cultures were further incubated for either 4 days (DENV-2 NGC-Tongalike) or 7 days (DENV-1 Djibouti strain D1/H/IMTSSA/98/606, DENV-3 strain H87 prototype, DENV-4 strain H241′) in the presence of the inhibitor. Supernatant was harvested and viral RNA load was determined by real-time quantitative RT-PCR. The 50% effective concentration (EC50), which is defined as the compound concentration that is required to inhibit viral RNA replication by 50%, was determined using logarithmic interpolation (Tables 7 and 8). RNA was isolated from 100 μL supernatant with the NucleoSpin 96 Virus kit (Filter Service, Duren, Germany) as described by the manufacturer. The sequences of the TaqMan primers (DENV-For, DENV-Rev; Table 5) and TaqMan probes (DENV-Probe Table 5) were selected from non-structural gene 3 (NS3) or NS5, of the respective flaviviruses using Primer Express software (version 2.0; Applied Biosystems, Lennik, Belgium). The TaqMan probe was fluorescently labelled with 6-carboxyfluorescein (FAM) at the 5′ end as the reporter dye, and with minor groove binder (MGB) at the 3′ end as the quencher (Table 5). One-step, quantitative RT-PCR was performed in a total volume of 25 μL, containing 13.9375 μL H2O, 6.25 μL master mix (Eurogentec, Seraing, Belgium), 0.375 μL forward primer, 0.375 μL reverse primer, 1 μL probe, 0.0625 μL reverse transcriptase (Eurogentec) and 3 μL sample. RT-PCR was performed using the ABI 7500 Fast Real-Time PCR System (Applied Biosystems, Branchburg, N.J., USA) using the following conditions: 30 min at 48° C. and 10 min at 95° C., followed by 40 cycles of 15 s at 95° C. and 1 min at 60° C. The data was analyzed using the ABI PRISM 7500 SDS software (version 1.3.1; Applied Biosystems). For absolute quantification, standard curves were generated using 10-fold dilutions of template preparations of known concentrations.

in vitro = format: cell-based; details: African green monkey, CC50
Procedure: Potential cytotoxic effects of the compounds were evaluated in uninfected Vero cells. Cells were seeded at 4×10^4 cells/well in a 96-well plate in the presence of two-, three- or five-fold serial dilutions (ranging from 50 μg/mL-0.0038 μg/mL, 50 μg/mL-0.0076 μg/mL, and 50 μg/mL-0.00013 μg/mL, respectively) of compound and incubated for 4 to 7 days. Culture medium was discarded and 100 μL 3-(4,5-dimethylthiazol-2-yl)-5-(3-carboxymethoxyphenyl)-2-(4-sulfophenyl)-2H-tetrazolium/phenazinemethosulfate (MTS/PMS; Promega, Leiden, The Netherlands) in PBS was added to each well. Following a 2-hour incubation period at 37° C., the optical density was determined at 498 nm. Cytotoxic activity was calculated using the following formula: % cell viability=100×(ODCompound/ODCC), where ODcompound and ODCC correspond to the optical density at 498 nm of the uninfected cell cultures treated with compound and that of uninfected, untreated cell cultures, respectively. The 50% cytotoxic concentration (i.e., the concentration that reduces the total cell number with 50%; CC50) was calculated using linear interpolation (Tables 7 and 8).

SMILES: COc1cc(NC(C(=O)c2c[nH]c3c(C)c(OC)ccc23)c2ccc(F)cc2OC)cc(OCCO)c1 (single isomer, unassigned) [Compound 11A, 2-(4-fluoro-2-methoxyphenyl)-2-((3-(2-hydroxyethoxy)-5-methoxyphenyl)amino)-1-(6-methoxy-7-methyl-1H-indol-3-yl)ethanone]
- EC50 (DENV-2 NGC-Tongalike): 0.00068 µM
- CC50 (in vitro): 11 µM

SMILES: COc1cc(NC(C(=O)c2c[nH]c3c(F)cc(C)cc23)c2ccc(F)cc2OC)cc(OCCO)c1 (single isomer, unassigned) [Compound 12B, 2-(4-fluoro-2-methoxyphenyl)-1-(7-fluoro-5-methyl-1H-indol-3-yl)-2-((3-(2-hydroxyethoxy)-5-methoxyphenyl)amino)ethanone]
- EC50 (DENV-2 NGC-Tongalike): 0.0017 µM
- CC50 (in vitro): 9.4 µM

SMILES: COc1cc(NC(C(=O)c2c[nH]c3cc(Cl)ccc23)c2ccc(F)cc2OC)cc(OCCO)c1 (single isomer, unassigned) [Compound 4A, 1-(6-chloro-1H-indol-3-yl)-2-(4-fluoro-2-methoxyphenyl)-2-((3-(2-hydroxyethoxy)-5-methoxyphenyl)amino)ethanone]
- EC50 (DENV-2 NGC-Tongalike): < 0.00029 µM
- CC50 (in vitro): 9.7 µM

SMILES: COc1cc(NC(C(=O)c2c[nH]c3c(C)c(F)ccc23)c2ccc(F)cc2OC)cc(OCCO)c1 (single isomer, unassigned) [Compound 2B, 2-(4-fluoro-2-methoxyphenyl)-1-(6-fluoro-7-methyl-1H-indol-3-yl)-2-((3-(2-hydroxyethoxy)-5-methoxyphenyl)amino)ethanone]
- EC50 (DENV-2 NGC-Tongalike): 0.00081 µM
- CC50 (in vitro): 9.2 µM

SMILES: COc1cc(NC(C(=O)c2c[nH]c3c(Cl)c(OC)ccc23)c2ccc(F)cc2OC)cc(OCCO)c1 (single isomer, unassigned) [Compound 8A, 1-(7-chloro-6-methoxy-1H-indol-3-yl)-2-(4-fluoro-2-methoxyphenyl)-2-((3-(2-hydroxyethoxy)-5-methoxyphenyl)amino)ethanone]
- EC50 (DENV-2 NGC-Tongalike): < 0.00024 µM
- CC50 (in vitro): 9.6 µM

SMILES: COc1cc(NC(C(=O)c2c[nH]c3cc(F)c(F)cc23)c2ccc(F)cc2OC)cc(OCCO)c1 (single isomer, unassigned) [Compound 10B, 1-(5,6-difluoro-1H-indol-3-yl)-2-(4-fluoro-2-methoxy-phenyl)-2-((3-(2-hydroxyethoxy)-5-methoxyphenyl)amino)ethanone]
- EC50 (DENV-2 NGC-Tongalike): 0.0016 µM
- CC50 (in vitro): 7.3 µM

SMILES: COc1cc(NC(C(=O)c2c[nH]c3cc(F)ccc23)c2ccc(F)cc2OC)cc(OCCO)c1 (single isomer, unassigned) [Compound 1A, 1-(6-fluoro-1H-indol-3-yl)-2-(4-fluoro-2-methoxyphenyl)-2-((3-(2-hydroxyethoxy)-5-methoxyphenyl)amino)ethanone]
- EC50 (DENV-2 NGC-Tongalike): 0.001 µM
- CC50 (in vitro): 13 µM

SMILES: COc1cc(NC(C(=O)c2c[nH]c3c(C)cc(F)cc23)c2ccc(F)cc2OC)cc(OCCO)c1 (single isomer, unassigned) [Compound 9B, 2-(4-fluoro-2-methoxyphenyl)-1-(5-fluoro-7-methyl-1H-indol-3-yl)-2-((3-(2-hydroxyethoxy)-5-methoxyphenyl)amino)ethanone]
- EC50 (DENV-2 NGC-Tongalike): 0.0008 µM
- CC50 (in vitro): 8.8 µM

SMILES: COc1cc(NC(C(=O)c2c[nH]c3cc(OC)c(F)cc23)c2ccc(F)cc2OC)cc(OCCO)c1 (single isomer, unassigned) [Compound 7A, 2-(4-fluoro-2-methoxyphenyl)-1-(5-fluoro-6-methoxy-1H-indol-3-yl)-2-((3-(2-hydroxyethoxy)-5-methoxyphenyl)amino)ethanone]
- EC50 (DENV-2 NGC-Tongalike): 0.0016 µM
- CC50 (in vitro): 16 µM

SMILES: COc1cc(NC(C(=O)c2c[nH]c3cc(OC)c(C)cc23)c2ccc(F)cc2OC)cc(OCCO)c1 (single isomer, unassigned) [Compound 6A, 2-(4-fluoro-2-methoxyphenyl)-2-((3-(2-hydroxyethoxy)-5-methoxyphenyl)amino)-1-(6-methoxy-5-methyl-1H-indol-3-yl)ethanone]
- EC50 (DENV-2 NGC-Tongalike): < 0.00035 µM
- CC50 (in vitro): 9.7 µM

SMILES: COc1cc(NC(C(=O)c2c[nH]c3c(F)c(F)ccc23)c2ccc(F)cc2OC)cc(OCCO)c1 (single isomer, unassigned) [Compound 5B, 1-(6,7-difluoro-1H-indol-3-yl)-2-(4-fluoro-2-methoxyphenyl)-2-((3-(2-hydroxyethoxy)-5-methoxyphenyl)amino)ethanone]
- EC50 (DENV-2 NGC-Tongalike): 0.00044 µM
- CC50 (in vitro): 12 µM

SMILES: COc1cc(NC(C(=O)c2c[nH]c3c(C)c(Cl)ccc23)c2ccc(F)cc2OC)cc(OCCO)c1 (single isomer, unassigned) [Compound 3A, 1-(6-chloro-7-methyl-1H-indol-3-yl)-2-(4-fluoro-2-methoxyphenyl)-2-((3-(2-hydroxyethoxy)-5-methoxyphenyl)amino)ethanone]
- EC50 (DENV-2 NGC-Tongalike): < 0.00028 µM
- CC50 (in vitro): 7.6 µM

Source: patent US10206902B2, “Mono- or di-substituted indoles as dengue viral replication inhibitors” (priority 2014, dated 2019)
